{"source": "patent US9969755B2", "about": "“Photodynamic therapy photosensitizers” (The Royal Institution for the Advancement of …, priority 2016, dated 2018)", "origin": "cited, not measured here", "settings": "reference value; cited from earlier work", "data": [{"smiles": "O=C([O-])c1c(Cl)c(Cl)c(Cl)c(Cl)c1-c1c2cc(I)c(=O)c(I)c-2oc2c(I)c([O-])c(I)cc12.[Na+].[Na+]", "note": "[Rose Bengal]", "values": [{"measurement": "φΔ of reference standard", "result": 0.54}]}]}
